Reference: ChEMBL document CHEMBL5365510, “Discovery of Novel, Thienopyridine-Based Tyrosine Kinase Inhibitors Targeting Tumorigenic RON Splice Variants” (ACS Med Chem Lett, 2023)
Calls of active or inactive are those of the source. The calls are words filed in the database; no cut-off is given here.

Columns and labels:
[1] = test system: SW-620; assay: Antitumor activity against human SW620 cells harbouring RON delta 155 xenografted in BALB/c mouse assessed as tumor growth inhibition at 30 mg/kg, po qd measured after 28 days; type: functional; conditions: SW-620, 672 h, time 28 day, read-out: TGI
[2] = test system: CAPAN-1; assay: Antiproliferative activity against human CAPAN-1 cells harbouring KRAS G12V mutant and RON delta 155 assessed as cell growth inhibition measured after 72 hrs by MTS assay; type: functional
[3] = Volume of distribution at steady state in Sprague-Dawley rat at 1 mg/kg, iv measured after 24 hrs by LC/MS/MS analysis; type: ADME, organism-based; conditions: in vivo, read-out: Vdss
[4] = Half life in Sprague-Dawley rat at 1 mg/kg, iv measured after 24 hrs by LC/MS/MS analysis; type: ADME, organism-based; conditions: in vivo
[5] = test system: HT-29; assay: Antiproliferative activity against human HT-29 cells harbouring wild-type KRAS and RON delta 160 assessed as cell death rate at 5 uM measured after 48 hrs by trypan blue exclusion assay relative to control; type: functional
[6] = Metabolic stability in human liver microsomes assessed as parent compound remaining after 30 mins in presence of NADPH by LC/MS/MS analysis; type: ADME, Microsome; conditions: read-out: Stability
[7] = test system: MIA PaCa-2; assay: Antiproliferative activity against human MIA PaCa-2 cells harbouring KRAS G12C mutant and RON delta 160 assessed as cell growth inhibition measured after 72 hrs by MTS assay; type: functional
[8] = test system: LS-411N; assay: Antiproliferative activity against human LS-411N cells harbouring wild-type KRAS and RON delta 155 assessed as cell growth inhibition measured after 72 hrs by MTS assay; type: functional
[9] = Tmax in Sprague-Dawley rat at 5 mg/kg, po measured after 24 hrs by LC/MS/MS analysis; type: ADME, organism-based; conditions: in vivo
[10] = test system: KM12C; assay: Antitumor activity against human KM12-C cells harbouring RON delta 160 xenografted in BALB/c mouse assessed as tumor growth inhibition at 10 mg/kg, po qd measured after 14 days; type: functional; conditions: 336 h, time 14 day, read-out: TGI
[11] = AUC(0 to infinity) in Sprague-Dawley rat at 5 mg/kg, po measured after 24 hrs by LC/MS/MS analysis; type: ADME, organism-based; parameters: dose 5 mg/kg, time 24 hrs, route po; conditions: in vivo, 24 h
[12] = test system: KM12C; assay: Antiproliferative activity against human KM12-C cells harbouring wild-type KRAS and RON delta 160 assessed as cell growth inhibition measured after 72 hrs by MTS assay; type: functional
[13] = test system: SW480; assay: Antiproliferative activity against human SW480 cells harbouring KRAS G12V mutant and RON delta 155 assessed as cell growth inhibition measured after 72 hrs by MTS assay; type: functional
[14] = test system: NIH3T3; assay: Inhibition of RON splicing variant 165 (unknown origin) transfected in […] cells assessed as reduction in RON phosphorylation at 100 uM incubated for 2 hrs by Western blotting analysis; type: cell-based
[15] = test system: KM12C; assay: Antiproliferative activity against human KM12-C cells harbouring wild-type KRAS and RON delta 160 assessed as cell death rate at 5 uM measured after 48 hrs by trypan blue exclusion assay relative to control; type: functional
[16] = test system: SW1417; assay: Antiproliferative activity against human SW1417 cells harbouring wild-type KRAS and RON delta 155 assessed as cell growth inhibition measured after 72 hrs by MTS assay; type: functional
[17] = test system: PANC-1; assay: Antiproliferative activity against human PANC-1 cells harbouring KRAS G12D mutant and RON delta 155 assessed as cell growth inhibition measured after 72 hrs by MTS assay; type: functional
[18] = Antitumor activity against patient derived Colorectal cancer cell harbouring wild-type KRAS and RON delta 160 xenografted in BALB/c mouse assessed as tumor growth inhibition at 10 mg/kg, po qd measured after 28 days; type: functional; conditions: Homo sapiens, 672 h, time 28 day, read-out: TGI
[19] = test system: KM12C; assay: Antitumor activity against human KM12-C cells harbouring RON delta 160 xenografted in BALB/c mouse assessed as tumor growth inhibition at 1 mg/kg, po qd measured after 14 days; type: functional; conditions: 336 h, time 14 day, read-out: TGI
[20] = test system: KM12C; assay: Antitumor activity against human KM12-C cells harbouring RON delta 160 xenografted in BALB/c mouse assessed as tumor growth inhibition at 30 mg/kg, po qd measured after 14 days; type: functional; conditions: 336 h, time 14 day, read-out: TGI
[21] = Half life in Sprague-Dawley rat at 5 mg/kg, po measured after 24 hrs by LC/MS/MS analysis; type: ADME, organism-based; conditions: in vivo
[22] = test system: PANC-03-27; assay: Antiproliferative activity against human Panc 03.27 cells harbouring KRAS G12V mutant and RON delta 155 assessed as cell growth inhibition measured after 72 hrs by MTS assay; type: functional
[23] = test system: KM12C; assay: Antitumor activity against human KM12-C cells harbouring RON delta 160 xenografted in BALB/c mouse assessed as tumor growth inhibition at 3 mg/kg, po qd measured after 14 days; type: functional; conditions: 336 h, time 14 day, read-out: TGI
[24] = Cmax in Sprague-Dawley rat at 5 mg/kg, po measured after 24 hrs by LC/MS/MS analysis; type: ADME, organism-based; parameters: dose 5 mg/kg, time 24 hrs, route po; conditions: in vivo
[25] = AUC(0 to infinity) in Sprague-Dawley rat at 1 mg/kg, iv measured after 24 hrs by LC/MS/MS analysis; type: ADME, organism-based; parameters: time 24 hrs, dose 1 mg/kg, route iv; conditions: in vivo, 24 h
[26] = test system: NIH3T3; assay: Inhibition of RON splicing variant 155 (unknown origin) transfected in […] cells assessed as reduction in RON phosphorylation at 100 uM incubated for 2 hrs by Western blotting analysis; type: cell-based
[27] = test system: SW-620; assay: Antiproliferative activity against human SW620 cells harbouring KRAS G12 V mutant and RON delta 155 assessed as cell growth inhibition measured after 72 hrs by MTS assay; type: functional
[28] = test system: NIH3T3; assay: Inhibition of RON splicing variant 160 (unknown origin) transfected in […] cells assessed as reduction in RON phosphorylation at 100 uM incubated for 2 hrs by Western blotting analysis; type: cell-based
[29] = Clearance in Sprague-Dawley rat at 1 mg/kg, iv measured after 24 hrs by LC/MS/MS analysis; type: ADME, organism-based; conditions: in vivo, iv, 1 mg/kg, 24 h
[30] = Antiproliferative activity against human SNU-1047 cells harbouring wild-type KRAS and RON delta 155 assessed as cell growth inhibition measured after 72 hrs by MTS assay; type: functional
[31] = test system: ASPC1; assay: Antiproliferative activity against human ASPC1 cells harbouring KRAS G12D mutant and RON delta 165 assessed as cell growth inhibition measured after 72 hrs by MTS assay; type: functional
[32] = Oral bioavailability in Sprague-Dawley rat at 5 mg/kg measured after 24 hrs by LC/MS/MS analysis; type: ADME, organism-based; conditions: in vivo, po, 5 mg/kg, 24 h
[33] = Antiproliferative activity against human SW480E cells harbouring KRAS G12V mutant and RON delta 160 assessed as cell growth inhibition measured after 72 hrs by MTS assay; type: functional
[34] = test system: HCT-15; assay: Antiproliferative activity against human HCT-15 cells harbouring KRAS G13D mutant and RON delta 160 assessed as cell growth inhibition measured after 72 hrs by MTS assay; type: functional
[35] = test system: T84; assay: Antitumor activity against human T84 cells harbouring RON delta 165 xenografted in BALB/c mouse assessed as tumor growth inhibition at 30 mg/kg, po qd measured after 34 days; type: functional; conditions: T84, 816 h, time 34 day, read-out: TGI

Compound: CCOc1ccn(-c2ccc(F)cc2)c(=O)c1C(=O)Nc1ccc(Oc2ccnc3cc(-c4ccc(CN5CCOCC5)cn4)sc23)c(F)c1
- inhibition in vivo at 30 mg/kg [1]: 79.8%
- GI50 [2]: 0.55 µM
- Vd [3]: 2.25 L/kg
- half-life [4]: 3.28 h
- Activity [5]: 51.3%
- remaining at 0.5 h [6]: 69%
- GI50 [7]: 0.63 µM
- GI50 [8]: 1.01 µM
- Tmax [9]: 1 h
- inhibition in vivo at 10 mg/kg [10]: 73%
- AUC [11]: 12600 ng·h/mL
- GI50 [12]: 0.007 µM
- GI50 [13]: 0.34 µM
- inhibition [14]: Active
- Activity [15]: 41.9%
- GI50 [16]: 0.32 µM
- GI50 [17]: 2.4 µM
- inhibition in vivo at 10 mg/kg [18]: 74.9%
- inhibition in vivo at 1 mg/kg [19]: 29.4%
- inhibition in vivo at 30 mg/kg [20]: 85.2%
- half-life [21]: 3.1 h
- GI50 [22]: 7.34 µM
- inhibition in vivo at 3 mg/kg [23]: 35%
- Cmax [24]: 2020 ng/mL
- AUC [25]: 7240 ng·h/mL
- inhibition [26]: Active
- GI50 [27]: 0.32 µM
- inhibition [28]: Active
- CL [29]: 11.5 mL/min/kg
- GI50 [30]: 0.55 µM
- GI50 [31]: 0.46 µM
- F [32]: 87.01%
- GI50 [33]: 0.45 µM
- GI50 [34]: 0.29 µM
- inhibition in vivo at 30 mg/kg [35]: 88.3%
